Where a name gives a salt, the structure may show the parent alone.
Molecular target: recombinant human HPK1 (Homo sapiens (Human), UniProt Q92918)
Test: HPK1 kinase assay (ADP-Glo)
Format: biochemical
Details: 25 μM ATP, MBP substrate
In short: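 Activity was read as ADP formed, detected by ADP-Glo luminescence after the reaction of 5 ng recombinant human HPK1 with MBP and ATP (stocks 0.5 μg/μl and 25 μM) for 40 min at 30 °C. Buffer was Tris pH 7.5 with MgCl2, BSA and DTT, with compound in 0.5% DMSO. IC50 came from inhibition curves.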

Sequence of recombinant human HPK1 (Q92918 whole entry): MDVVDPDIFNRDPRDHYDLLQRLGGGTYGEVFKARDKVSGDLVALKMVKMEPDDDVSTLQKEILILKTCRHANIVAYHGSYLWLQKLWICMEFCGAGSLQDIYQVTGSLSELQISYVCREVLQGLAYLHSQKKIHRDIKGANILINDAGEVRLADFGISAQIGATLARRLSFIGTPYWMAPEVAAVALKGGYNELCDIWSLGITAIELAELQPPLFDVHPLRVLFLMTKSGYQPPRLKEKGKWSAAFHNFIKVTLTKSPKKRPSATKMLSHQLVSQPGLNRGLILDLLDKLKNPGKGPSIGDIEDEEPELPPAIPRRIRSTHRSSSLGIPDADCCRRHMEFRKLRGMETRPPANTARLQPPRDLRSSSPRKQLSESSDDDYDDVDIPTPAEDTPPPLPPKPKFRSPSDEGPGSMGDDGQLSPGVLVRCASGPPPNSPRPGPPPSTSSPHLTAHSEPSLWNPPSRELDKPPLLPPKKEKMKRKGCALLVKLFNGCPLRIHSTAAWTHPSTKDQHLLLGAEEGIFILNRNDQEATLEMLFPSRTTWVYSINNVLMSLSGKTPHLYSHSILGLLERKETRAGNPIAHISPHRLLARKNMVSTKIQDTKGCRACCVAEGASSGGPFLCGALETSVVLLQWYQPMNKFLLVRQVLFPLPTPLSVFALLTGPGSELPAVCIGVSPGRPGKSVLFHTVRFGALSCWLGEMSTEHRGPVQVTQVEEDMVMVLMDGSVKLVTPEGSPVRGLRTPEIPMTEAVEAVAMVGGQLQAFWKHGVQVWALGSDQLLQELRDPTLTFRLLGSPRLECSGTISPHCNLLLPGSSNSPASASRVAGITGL

SMILES	IC50
Nc1c(F)cc2[nH]ncc2c1-c1ccc2nc(NC(=O)[C@@H]3C[C@@H]3F)sc2n1 [Example 151, (1S,2S)-N-(5-(5-amino-6-fluoro-1H-indazol-4-yl)thiazolo[5,4-b]pyridin-2-yl)-2-fluorocyclopropane-1-carboxamide]	> 1000 nM
O=C(Nc1cn2cc(-c3c(Cl)c(F)cc4[nH]ncc34)ccc2n1)C1CC1 [Example 242, N-(6-(5-chloro-6-fluoro-1H-indazol-4-yl)imidazo[1,2-a]pyridin-2-yl)cyclopropanecarboxamide]	101 to 500 nM
O=C(O)c1c(F)c(Cl)c(-c2ccc3nc(NC(=O)[C@@H]4C[C@@H]4F)cn3c2)c2cn[nH]c12 [Example 314, 5-chloro-6-fluoro-4-(2-((1S,2S)-2-fluorocyclopropane-1-carboxamido)imidazo[1,2-a]pyridin-6-yl)-1H-indazole-7-carboxylic acid]	> 1000 nM
Cc1c(F)c(Cl)c2[nH]nc(Cl)c2c1-c1cc(Cl)c2nc(NC(=O)[C@@H]3C[C@@H]3F)sc2c1 [Example 54, (1S,2S)-N-(4-chloro-6-(3,7-dichloro-6-fluoro-5-methyl-1H-indazol-4-yl)benzo[d]thiazol-2-yl)-2-fluorocyclopropane-1-carboxamide]	> 1000 nM
C#Cc1ccc2[nH]ncc2c1-c1ccc2nc(NC(=O)[C@@H]3C[C@@H]3F)sc2c1 [Example 39, (1S,2S)-N-(6-(5-ethynyl-1H-indazol-4-yl)benzo[d]thiazol-2-yl)-2-fluorocyclopropane-1-carboxamide]	101 to 500 nM
O=C(Nc1cc2cc(-c3c(CO)ccc4[nH]ncc34)ccn2n1)[C@@H]1C[C@@H]1F [Example 461, (1S,2S)-2-fluoro-N-(5-(5-(hydroxymethyl)-1H-indazol-4-yl)pyrazolo[1,5-a]pyridin-2-yl)cyclopropane-1-carboxamide]	> 1000 nM
Cc1c(F)c(C(=O)O)c2[nH]ncc2c1-c1ccc2nc(NC(=O)[C@@H]3C[C@@H]3F)sc2c1 [Example 124, 6-fluoro-4-(2-((1S,2S)-2-fluorocyclopropane-1-carboxamido)benzo[d]thiazol-6-yl)-5-methyl-1H-indazole-7-carboxylic acid]	> 1000 nM
CNC(=O)OCCSc1c(F)c(C)c(-c2ccc3nc(NC(=O)[C@@H]4C[C@@H]4F)cn3c2)c2cn[nH]c12 [Example 312, 2-((6-fluoro-4-(2-((1S,2S)-2-fluorocyclopropane-1-carboxamido)imidazo[1,2-a]pyridin-6-yl)-5-methyl-1H-indazol-7-yl)thio)ethyl methylcarbamate]	< 100 nM
CC(=O)N(C)C(C)c1c(F)c(Cl)c(-c2ccc3nc(NC(=O)[C@@H]4C[C@@H]4F)cn3c2)c2cn[nH]c12 (stereo partly drawn) [Example 412, (1S,2S)-N-(6-(5-chloro-6-fluoro-7-(1-(N-methylacetamido)ethyl)-1H-indazol-4-yl)imidazo[1,2-a]pyridin-2-yl)-2-fluorocyclopropane-1-carboxamide]	< 100 nM

The next lines start with the values.

IC50	SMILES
< 100 nM	CN(c1c(F)c(Cl)c(-c2ccc3nc(NC(=O)[C@@H]4C[C@@H]4F)sc3c2)c2cn[nH]c12)C1CNC1 [Example 129, (1S,2S)-N-(6-(7-(azetidin-3-yl(methyl)amino)-5-chloro-6-fluoro-1H-indazol-4-yl)benzo[d]thiazol-2-yl)-2-fluorocyclopropane-1-carboxamide]
< 100 nM	CCc1c(F)c(F)c2[nH]ncc2c1-c1ccc2nc(NC(=O)[C@@H]3C[C@@H]3F)cn2c1 [Example 298, (1S,2S)-N-(6-(5-ethyl-6,7-difluoro-1H-indazol-4-yl)imidazo[1,2-a]pyridin-2-yl)-2-fluorocyclopropane-1-carboxamide]
< 100 nM	CNC(=O)NCCOc1c(F)c(C)c(-c2ccn3nc(NC(=O)[C@@H]4C[C@@H]4F)cc3c2)c2cn[nH]c12 [Example 545, (1S,2S)-2-fluoro-N-(5-(6-fluoro-5-methyl-7-(2-(3-methylureido)ethoxy)-1H-indazol-4-yl)pyrazolo[1,5-a]pyridin-2-yl)cyclopropane-1-carboxamide]
< 100 nM	Cc1c(F)c(SCCO)c2[nH]ncc2c1-c1ccc2nc(NC(=O)[C@@H]3C[C@@H]3F)cn2c1 [Example 292, (1S,2S)-2-fluoro-N-(6-(6-fluoro-7-((2-hydroxyethyl)thio)-5-methyl-1H-indazol-4-yl)imidazo[1,2-a]pyridin-2-yl)cyclopropane-1-carboxamide]
< 100 nM	COC(C)(C)c1c(F)c(Cl)c(-c2ccc3nc(NC(=O)[C@@H]4C[C@@H]4F)cn3c2)c2cn[nH]c12 [Example 395, (1S,2S)-N-(6-(5-chloro-6-fluoro-7-(2-methoxypropan-2-yl)-1H-indazol-4-yl)imidazo[1,2-a]pyridin-2-yl)-2-fluorocyclopropane-1-carboxamide]
< 100 nM	O=C(Nc1cn2cc(-c3c(Br)ccc4[nH]ncc34)ccc2n1)[C@@H]1C[C@@H]1F [Example 238, (1S,2S)-N-(6-(5-bromo-1H-indazol-4-yl)imidazo[1,2-a]pyridin-2-yl)-2-fluorocyclopropane-1-carboxamide]
< 100 nM	CNC(=O)c1c(F)c(Cl)c(-c2ccc3nc(NC(=O)[C@@H]4C[C@@H]4F)sc3c2)c2cn[nH]c12 [Example 127, 5-chloro-6-fluoro-4-(2-((1S,2S)-2-fluorocyclopropane-1-carboxamido)benzo[d]thiazol-6-yl)-N-methyl-1H-indazole-7-carboxamide]
< 100 nM	COc1c(F)cc2[nH]ncc2c1-c1ccn2nc(NC(=O)[C@@H]3C[C@@H]3F)cc2c1 [Example 467, (1S,2S)-2-fluoro-N-(5-(6-fluoro-5-methoxy-1H-indazol-4-yl)pyrazolo[1,5-a]pyridin-2-yl)cyclopropane-1-carboxamide]
< 100 nM	CCc1c(F)c(SC)c2[nH]ncc2c1-c1ccn2nc(NC(=O)[C@@H]3C[C@@H]3F)cc2c1 [Example 513, (1S,2S)-N-(5-(5-ethyl-6-fluoro-7-(methylthio)-1H-indazol-4-yl)pyrazolo[1,5-a]pyridin-2-yl)-2-fluorocyclopropane-1-carboxamide dihydrochloride]
< 100 nM	CC(NC(=O)C(F)(F)F)c1c(F)c(Cl)c(-c2ccn3nc(NC(=O)[C@@H]4C[C@@H]4F)cc3c2)c2cn[nH]c12 (stereo partly drawn) [Example 662, (1S,2S)-N-(5-(5-chloro-6-fluoro-7-(1-(2,2,2-trifluoroacetamido)ethyl)-1H-indazol-4-yl)pyrazolo[1,5-a]pyridin-2-yl)-2-fluorocyclopropane-1-carboxamide]
< 100 nM	COc1cc(C)c(-c2ccn3nc(NC(=O)[C@@H]4C[C@@H]4F)cc3c2)c2cn[nH]c12 [Example 506, (1S,2S)-2-fluoro-N-(5-(7-methoxy-5-methyl-1H-indazol-4-yl)pyrazolo[1,5-a]pyridin-2-yl)cyclopropane-1-carboxamide]
< 100 nM	CCC(=O)NC(C)c1c(F)c(Cl)c(-c2ccn3nc(NC(=O)[C@@H]4C[C@@H]4F)cc3c2)c2cn[nH]c12 (stereo partly drawn) [Example 660, (1S,2S)-N-(5-(5-chloro-6-fluoro-7-(1-propionamidoethyl)-1H-indazol-4-yl)pyrazolo[1,5-a]pyridin-2-yl)-2-fluorocyclopropane-1-carboxamide]
< 100 nM	CC(=O)NCCSc1c(F)c(Cl)c(-c2ccc3nc(NC(=O)[C@@H]4C[C@@H]4F)sc3c2)c2cn[nH]c12 [Example 73, (1S,2S)-N-(6-(7-((2-acetamidoethyl)thio)-5-chloro-6-fluoro-1H-indazol-4-yl)benzo[d]thiazol-2-yl)-2-fluorocyclopropane-1-carboxamide]
